Read-outs that look alike come from different tables or passages of the source.
Conditions: oral tablets, placebo group 6 patients
Procedure: Subjects will be stratified at randomization for use/non-use of AChE inhibitors. A target of 201 subjects (67 subjects per arm) in 3 treatment groups are enrolled for 12 Months with optional follow-on treatment after Month 12 (2 treatment groups).
The intraday dosing interval is approximately 12 hours. Study drug is instructed to be taken at approximately the same time each day during the participation in the 12-month study. Study medication may be taken with or without food.

C[C@@H](C(=O)O)c1ccc(-c2ccccc2)c(F)c1 [(R)-2-(2-fluoro-4-biphenyl)propionic acid]
patients exhibiting urinary incontinence (400 mg BID group (800 mg/day), p value vs. placebo = 0.028): 0 patients | patients exhibiting urinary incontinence (800 mg BID group (1600 mg/day), p value vs. placebo = 0.063): 1 patient

Source: patent US20070015832A1, “Methods of treating overactive bladder and urinary incontinence” (Myriad Genetics, Incorporated, priority 2005, published 2007)
